Experimental data as given in patent publication US8158360B2, “Effects of inhibitors of FGFR3 on gene transcription” (priority 2005, dated 2012).

Columns and labels:
Test in all cases: Sensitivity of multiple myeloma cell line to CHIR-258 treatment
Type in all cases: cell-based, human
[1] = system: KMS18; conditions: KMS18: Ras WT, FGFR3G384D mutant
[2] = system: UTMC2; conditions: UTMC2: Ras WT, FGFR3WT
[3] = system: H929; conditions: H929: N13 Ras mutant, FGFR3 wild-type (WT)
[4] = system: KMS11; conditions: KMS11: Ras WT, FGFR3Y373C mutant
[5] = system: U266; conditions: U266: Ras WT, FGFR3 negative

## CN1CCN(c2ccc3nc(-c4c(N)c5c(F)cccc5[nH]c4=O)[nH]c3c2)CC1 [CHIR-258, 4-Amino-5-fluoro-3-[6-(4-methylpiperazin-1-yl)-1H-benzimidazol-2-yl]quinolin-2(1H)-one]
[1]
  sensitivity of cell line to treatment: sensitive
[2]
  sensitivity of cell line to treatment: resistant
[3]
  sensitivity of cell line to treatment: resistant
[4]
  sensitivity of cell line to treatment: sensitive
[5]
  sensitivity of cell line to treatment: resistant
